Source: a melting point compilation (Tetko et al.; mined from patent text by program, amines drawn as free bases though some values may be those of a salt)

Compared with `Cc1nc(-c2cn(Cc3ccccc3)nn2)sc1C(=O)NCc1cccnc1`, `O=C(NCc1noc(-c2ccc(CN3CCCCCC3)s2)n1)c1ccccc1` is lower in melting point: 212 to 213 °C for the first, 79 to 81 °C for the second.

First: COc1cc2c(cc1C(F)(F)F)N(C(=O)Nc1cncc(-c3cnccc3C)c1)CC2
Second: COc1ccc2c(c1)C(c1ccccc1)=Nn1c(C)cnc1C2
The melting point of the first is lower: 125 to 128 °C for the first, 140 °C for the second.

First: CN1C(=O)CC[C@]2(C)c3ccc(-c4nc5ccccc5[nH]4)cc3CC[C@@H]12
Second: O=C(c1ccc(F)cc1)N1CCC[C@H](c2nc(-c3ccc4ccccc4c3)no2)C1
The melting point of the first is higher: 183 to 186 °C for the first, 142 to 143 °C for the second.

First: c1cc(C2=NOCCS2)ccn1
Second: FC(F)(F)C1(c2cc(Cl)cc(Cl)c2)CC(c2ccc(Br)cc2)=NO1 (stereo not given)
The melting point of the first is lower: 80 to 82 °C for the first, 122 to 124 °C for the second.

Going from `CC(C)c1nn(C(=O)NC2CCCC2)c(=O)n1N` to `O=C(NC1CCCCC1)c1c(O)c2cscc2[nH]c1=O`, the melting point rises from 109 °C to 244 °C.

`CCOC(=O)C1CC(=O)C(N=Nc2ccc(Br)cc2)=C(O)C1` (stereo not given) and `CCCc1ccc(C(=O)Nc2ccc3c(c2)CCCC3=O)cc1` cannot be ordered by melting point: 169 to 171 °C for the first, 168 to 170 °C for the second.

Compared with `O=C(Cc1ccccc1)N1CC2COCC2C1` (stereo not given), `COc1ccc(N2CCN(C(=O)CC3CCCc4ccccc43)CC2)cc1` (stereo not given) is higher in melting point: 47.5 to 48.5 °C for the first, 133 to 134 °C for the second.

Compared with `COc1cc2c3c(cccc3c1N1CCCCC1)C(=O)N(O)C2=O`, `CC(C)(C)OC(=O)N1CCN(c2ccc3c(c2)-n2c(nc4ccccc4c2=O)C3=O)CC1` is higher in melting point: 204 to 205 °C for the first, 226 to 228 °C for the second.

First: COC(=O)CCn1c(C)c(Cn2ccnc2)c2c(CCC(=O)O)cccc21
Second: COc1ccc(-c2c(C(=O)O)n(Cc3cc4c(cc3Cl)OCO4)c3ccccc23)c(OCC(=O)O)c1
The melting point of the first is higher: 136 to 138 °C for the first, 61 to 62 °C for the second.

First: CC(=O)Nc1cc(=O)cc2n1CCCCC2
Second: O=C(NCC1(c2ccccc2)CCCCC1)Nc1ccc(F)cc1F
The melting point of the first is higher: > 230 °C for the first, 163 to 165 °C for the second.

First: O=Cc1cc(=O)n2ccsc2n1
Second: CC(O)c1cc2c(s1)C(=O)c1sccc1C2=O (stereo not given)
The melting point of the first is higher: 184 to 186 °C for the first, 170 to 172 °C for the second.

Compared with `CCCOc1nsc(NC(=O)C(C)C)c1C(N)=O`, `CCOC(=O)c1cc2cc(OCCOC)cc([N+](=O)[O-])c2[nH]1` is lower in melting point: 153 to 154 °C for the first, 90 to 91 °C for the second.

First: Cn1c(C(F)(F)F)ccc(-c2cc(C#N)c(Cl)cc2F)c1=O
Second: CCOC(=O)C(Cl)=Cc1cc(-n2c(Cl)nc(C(F)(F)F)cc2=O)ccc1Cl
The melting point of the first is higher: 180 to 181 °C for the first, 114 to 115 °C for the second.

Compared with `CC(C)(C)c1ccc2c(c1)C=C(/C=C/C=C/C=C/C(=O)O)CO2`, `COC(=O)C=Cc1ccc(OC)c(OC)c1` is lower in melting point: 200 to 202 °C for the first, 72 to 74 °C for the second.

First: CCN(CC)CCCOc1cccc(-c2oc3ccccc3c2C(=O)c2cc(C)cc(C)c2)c1
Second: Cc1oc(-c2ccccc2)nc1COc1cncc(COc2ccc(CC(=O)O)cc2)c1
The melting point of the first is lower: 114 to 121 °C for the first, 141 to 142 °C for the second.

First: CC(C)(C)OC(=O)[C@@H](CCCOS(=O)(=O)c1ccc2ccccc2c1)C[C@H](NC(c1ccccc1)(c1ccccc1)c1ccccc1)C(=O)OC(C)(C)C
Second: CN(C)C(=O)c1ccc(CNC(=O)C2Cc3ccccc3N2S(=O)(=O)c2ccc(-c3cccc(C(F)(F)F)c3)cc2)cc1 (stereo not given)
The melting point of the first is higher: 119 °C for the first, 70 °C for the second.

First: CC(CCC1(C(N)=O)c2ccccc2-c2ccccc21)N(C)C (stereo not given)
Second: CC(C(=O)CC#N)c1ccc(-c2ccccc2)c(F)c1 (stereo not given)
The melting point of the first is higher: 104 to 106 °C for the first, 84 to 85 °C for the second.

Compared with `CCOc1cc(Cc2cnc(N)nc2N)cc2c1OC(C)(C)C=C2CC(C)C`, `CCN(CC)c1ccc(-c2cc(-c3ccc(C(=O)O)cc3)ccc2OCC(C)O)cc1C(C)(C)C` (stereo not given) is higher in melting point: 188 °C for the first, 193 °C for the second.

First: CCCCCCCCCCCCCCCCCCNC(=O)C(=O)Nc1ccc(O)cc1
Second: COC(=O)C(CO)N(Cc1ccccc1N)S(=O)(=O)c1ccc(OC)cc1 (stereo not given)
The melting point of the first is higher: 192 °C for the first, 138 to 140 °C for the second.

Compared with `CN1C[C@H](CN2CCN(C(c3ccccc3)c3ccccc3)CC2)C=C2c3cccc4c3c(cn4C)C[C@H]21`, `c1ccc(C2c3ccccc3-c3ncncc32)cc1` (stereo not given) is lower in melting point: 172 to 175 °C for the first, 148 to 150 °C for the second.

First: CS(=O)c1ccc(Oc2ccc(Cl)c(Cl)c2)nc1C#N (stereo not given)
Second: Cc1nn2c3c1c(=O)[nH]c(=O)n3CC=C2c1cc(Cl)ccc1Cl
The melting point of the first is lower: 165 to 167 °C for the first, 205 to 209 °C for the second.

First: CC(C)c1cc(O)n[nH]1
Second: Cc1ccc(C(O)(Cc2nnnn2C)c2ccc(C)cc2F)c(F)c1
The melting point of the first is higher: 189 to 193 °C for the first, 150 to 151 °C for the second.

First: N#Cc1cc(-n2nnnc2C(F)(F)F)ccc1OC(F)(F)F
Second: CC1(CN2CCN(N=Cc3ccc(OC(F)(F)F)cc3)CC2)Cn2cc([N+](=O)[O-])nc2O1 (stereo not given)
The melting point of the first is lower: 65 to 67 °C for the first, 189 to 191 °C for the second.

First: COc1c2c(c(OC)c(OC)c1OC)CC(CCCCCCC1Cc3c(c(OC)c(OC)c(OC)c3OC)C1)C2
Second: CO/N=C(\C)c1ccc(Nc2c3ccccc3nc3occc23)cc1
The melting point of the first is lower: 100 to 108 °C for the first, 167 to 168 °C for the second.

Compared with `O=S(=O)(Br)c1cccs1`, `O=c1[nH]c(=O)n2c3c(cccc13)S(=O)(=O)c1ccc(C(F)(F)F)cc1-2` is higher in melting point: 49 to 51 °C for the first, 290 to 293 °C for the second.
